Assay results as given in patent US9968574B2, “Treatment of MCI and Alzheimer's disease” (The University of Kentucky Research Foundation, priority 2009, dated 2018).
“Also recorded” adds a separate entry of the source. Like-named read-outs stand apart in the source and are kept apart here.

Experiments:
[1] = tested on: H4 neuroglioblastoma cells stably transfected to overexpress amyloid precursor protein (APP); assay: Aβ1-42 secreted into medium by H4 cells overexpressing APP, ELISA; format: cell-based
Procedure: H4 neuroglioblastoma cells stably transfected with a construct overexpressing amyloid precursor protein (APP) secret Aβ1-42 into the culture medium. […] The Aβ levels in the culture medium were measured using ELISAs (Invitrogen).
We then tested if other calcium channel blockers can inhibit Aβ 1-42 generation in H4 neuroglioma cultures. Known calcium channel blockers such as Amilodpine, Dilitiazem, Felodipine, Isradipine, Nicardipine, and Nimodipine were used in this experiment.

[2] = biological target: T1, beta secretase (BACE) (Homo sapiens, UniProt P56817); assay: BACE activity, fluorescent substrate and purified recombinant BACE (Invitrogen kit); format: biochemical
T1 construct: purchased Invitrogen
Procedure: BACE activity was measured using a fluorescent substrate and purified recombinant BACE as part of a commercial kit from Invitrogen.
Using a similar procedure as described in Example 8, NFD-L1 was tested for inhibition of BACE activity.

[3] = tested on: Human astrocytoma cells; assay: Inflammatory cytokine ELISAs in astrocytoma cultures; format: cell-based; conditions: for IL-1 secreted in the medium / IL-6 secreted in the medium / TNF-α secreted in the medium: 24 hours
Procedure: Following exposure medium was collected from each well and levels of inflammatory cytokines ([…], TNF-α, TGF-β and […]) were determined using commercially available ELISAs.
It was reported that inflammatory response elements (cytokines) are elevated in Alzheimer's disease patients. The inventors tested the nifedipine mix and individual analogs in astrocytoma cultures. Human astrocytoma cells were plated at 2.5×10^5 cells/well in 6 well culture plates and were grown for 24 hours. […] Three 6-well plates were subjected to each treatment. Following treatment, medium was collected from each well and levels of IL-1β, IL-6, TNF-α and TGF-β were measured using commercially available ELISAs.
Using a similar procedure to that described in Example 3, NFD-L1 was tested in astrocytoma cultures.

[4] = tested on: H4 neuroglioma cultures that overexpress APP; assay: Levels of enzymes involved in Aβ processing in H4 cultures overexpressing APP, immunohistochemistry; format: cell-based
Procedure: Following treatment, cultures were rinsed three times in PBS and fixed in 70% methanol/30% acetone for 30 minutes at −20° C. Cultures were then subjected to immunohistochemistry for BACE, PS-1, GPCR-3, nicastrin, and ADAM (the enzyme responsible for alpha secretase cleavage). 30 to 50 cells were imaged in 4-5 fields/dish (3 dishes each treatment) (FIG. 22). […] Alpha secretase cleavage leads to decreased Aβ1-42.
Using a similar procedure as described in Example 13, H4 neuroglioma cultures were treated with NFD-L1 to determine the effects of NFD-L1 on levels of enzymes involved in Aβ processing.

[5] = tested on: mice; assay: Aβ and Aβ processing proteins in mice, ELISA and Western blot; format: in vivo, mouse; conditions: IP injections (nitroso-nifedipine 35 mg/kg, 3 days)
Procedure: It is contemplated that increased ADAM-10 levels lead to increased cleavage at the alpha secretase position of APP, minimizing generation of Aβ.
The effects of NFD-L1 on levels of enzymes involved in Aβ processing in vivo were determined using a similar procedure to that described in Example 15.

[6] = tested on: PDS/TTR complex; assay: PDS/TTR complex expressed into culture medium by choroid plexus epithelial cells, Western blot; format: cell-based, human; conditions: control epithelial cells, 5 μM acrolein, 72 hours
Procedure: For these experiments, primary cultures of choroid plexus epithelial cells were established from short post mortem interval autopsies using established methods. AD and normal control cultures were grown to confluence in MEM growth medium containing 2% fetal bovine serum and 1% epithelial growth factor (EGF). Normal control cultures were switched to Opti-MEM containing N2 supplement and were treated with vehicle (controls) or with 5 μM acrolein for 72 hours. […] After treatment, medium was collected from each flask and was desalted using PD-10 columns. The eluted proteins were then freeze-dried, resuspended in 25 μl water and analyzed using Western blot analysis and antibodies specific to PDS and TTR.
The amount of PDS/TTR secreted into the culture medium by each culture was determined by Western blot analysis as described above.

[7] = tested on: PDS/TTR complex; assay: PDS/TTR-positive epithelial cells by immunostaining; format: cell-based, human; conditions: acrolein alone
Description: In addition, immunostaining was used to determine the PDS/TTR-positive cells and the numbers of PDS/TTR-positive cells from treated and untreated cell cultures were counted and compared.

[8] = tested on: orphan G-coupled receptor protein 3 (GPCR-3); conditions: H4 cells, 1 μM (0.5 μM T3/0.5 μM T4), 16 hours
Procedure: Levels of GPCR-3 were measured using Western blot analysis using a GPCR-3 specific antibody.

[9] = tested on: C57/B16 mice; assay: EAAT2 in tissue of treated mice, Western blot; format: in vivo, mouse; conditions: 25 mg/kg, 3 days
[10] = tested on: orphan G-coupled receptor protein 3 (GPCR-3); conditions: mice of Example 10
Procedure: (§1) Based on the in vitro data described above, the inventors initiated an acute exposure study in 3 month old C57-Black-6 (C57BL/6) mice.
In addition, GPCR-3 levels were determined in the C57BL/6 mice described above in Example 10 using Western blot analysis.

[11] = Liver toxicity study: serum alkaline phosphatase in mice; format: in vivo, mouse
[12] = tested on: H4 neuroglioma cultures; assay: Calcium influx after KCl depolarization in H4 cultures, Fluo-4 AM confocal microscopy; format: cell-based; conditions: 1 μM nifedipine or […] nitroso-nifedipine, 1 hour
Procedure: Cells were depolarized by addition of 40 μL 100 mM KCl and calcium levels quantified 30 seconds following depolarization by confocal microscopy (n=75-100 cells/dish for 3 dishes/treatment).

[13] = tested on: C57/B16 mice; assay: Brain Aβ1-40 in mice given nitroso-nifedipine IP, Covance ELISA; format: in vivo, mouse; conditions: 35 mg/kg IP, 3 days
Procedure: The animals were sacrificed 15 minutes following the final injection. Brains were quickly removed, split into hemispheres, and snap frozen in liquid nitrogen. Brains were shipped on dry ice and maintained at −80° C. until used for analysis. One hemisphere of each brain was homogenized in diethylamine (200 mg wet weight/mL) containing complete protease inhibitors using a Dounce homogenizer. Homogenate was centrifuged at 16,000×g for 30 minutes and 50 μL soluble protein subjected to Aβ1-40 quantification using a Covance ELISA per manufacturer's instructions. Results are expressed as % vehicle treated animals.

[14] = tested on: H4 neuroglioma cultures; assay: Survival of H4 cells, MTT reduction; format: cell-based; conditions: increasing concentrations, 16 hours
Procedure: Specifically, H4 neuroglioma cultures were plated at a density of 2.5×10^5 cells/well and allowed to attach overnight. […] Following treatment, MTT was added at a final concentration of 0.5 mg/mL and cultures incubated for 30 minutes. Following MTT treatment, medium was removed and the formazan crystals generated by mitochondrial conversion of MTT were dissolved in DMSO and absorbance was measured at 650 nm. Data are reported as mean±SEM % control MTT reduction (FIG. 21).

[15] = mouse, in vivo
Description: as §1

T1 sequence (P56817 46-501): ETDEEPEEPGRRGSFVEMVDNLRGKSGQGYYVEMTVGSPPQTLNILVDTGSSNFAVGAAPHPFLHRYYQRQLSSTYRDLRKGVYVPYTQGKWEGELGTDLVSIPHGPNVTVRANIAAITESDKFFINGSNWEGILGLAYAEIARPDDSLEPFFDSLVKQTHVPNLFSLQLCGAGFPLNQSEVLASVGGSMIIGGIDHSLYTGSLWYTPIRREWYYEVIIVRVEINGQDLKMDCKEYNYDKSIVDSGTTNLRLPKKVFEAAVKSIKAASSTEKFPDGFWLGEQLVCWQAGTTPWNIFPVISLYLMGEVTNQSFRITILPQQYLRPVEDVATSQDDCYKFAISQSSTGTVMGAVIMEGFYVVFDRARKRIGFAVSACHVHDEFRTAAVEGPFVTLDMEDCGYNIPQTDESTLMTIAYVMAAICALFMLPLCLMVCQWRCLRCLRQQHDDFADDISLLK

| SMILES | BACE activity ([2]; agent alone) | IL-1 secreted in the medium [3] | IL-6 secreted in the medium [3] | TNF-α secreted in the medium [3] | ADAM-10 level [4] | BACE protein level [4] | PS-1 level [4] | nicastrin (NCT) level [4] | ADAM-10 level [5] | Aβ1-40 level [5] | cleaved Notch-1 level [5] | presenilin-1 level [5] | BACE activity ([2]; in combination with thyroxine) | also measured |
| --- | --- | --- | --- | --- | --- | --- | --- | --- | --- | --- | --- | --- | --- | --- |
| COc1ccc([C@@H]2Sc3ccccc3N(CCN(C)C)C(=O)[C@@H]2OC(C)=O)cc1 [Dilitiazem, reference compound] |  |  |  |  |  |  |  |  |  |  |  |  |  | Aβ formation, calcium channel blocker combined with T3/T4 ([1]; 1 μM with T3/T4, 16 hours): significant decrease |
| COC(=O)c1c(C)nc(C)c2c(=O)[nH]c3ccccc3c12 [NFD-L1] | significantly inhibits | significantly reduced | significantly reduced | significantly reduced | significant increase | significant decrease | significant decrease | significant decrease | significant increase | significant decrease | significant increase | significant decrease |  | inflammatory cytokine production [3]: inhibited; Aβ 1-42 generation ([1]; procedure similar to Example 6): inhibited |
| C=CC=O [acrolein] |  |  |  |  |  |  |  |  |  |  |  |  |  | expression of the PDS/TTR complex in culture medium [6]: increased; number of PDS/TTR-positive cells, % of untreated control [7]: about 600% |
| COC(=O)C1=C(C)NC(C)=C(C(=O)OC)C1c1ccccc1[N+](=O)[O-] [nifedipine, 1,4-dihydro-2,6-dimethyl-4-(2-nitrophenyl)-3,5-pyridinedicarboxylic acid dimethyl ester] | slightly inhibited |  |  |  |  |  |  |  |  |  |  |  | slightly inhibited | GPCR-3 expression level [8]: significantly reduced; EAAT2 level [9]: significant increase; GPCR-3 expression level [10]: reduced |
| COC(=O)c1c(C)nc(C)c(C(=O)OC)c1-c1ccccc1N=O [nitroso-nifedipine, 2,6-dimethyl-4-(2-nitrosophenyl)-3,5-pyridinedicarboxylic acid dimethyl ester] | significant inhibition; also recorded: significantly inhibits |  |  |  | significant increase | significant decrease | did not significantly alter | did not significantly alter | significant increase | significant decrease | significant increase | significant decrease | significant inhibition | serum alkaline phosphatase level ([11]; 35 mg/kg): significant decrease; serum alkaline phosphatase level ([11]; any dose): did not significantly increase; liver damage ([11]; mice): does not induce liver damage; Ca influx following depolarization [12]: significant increase; GPCR-3 level [4]: significant increase; levels of Aβ1-40, % vehicle treated animals [13]: significant decrease; resistance (survival) of H4 cultures compared to nifedipine [14]: more resistant |
| COC(=O)c1c(C)nc(C)c(C(=O)OC)c1-c1ccccc1[N+](=O)[O-] [oxidized nifedipine, 2,6-dimethyl-4-(2-nitrophenyl)-3,5-pyridinedicarboxylic acid dimethyl ester] |  | significantly reduced | significantly reduced | significantly reduced |  |  |  |  |  |  |  |  |  | presence in brain extracts (passing the blood-brain barrier) [15]: found in all samples analyzed |
